For one assay, the system named is MV4-11 cells. Put plainly: Cell proliferation assay (ATPlite). The class given is cell-based. Particulars: Homo sapiens, MV4-11, 120 h; MV-411 cells, five days; read-out: In vitro whole cell potency in MV-411 cells, (IC50). Summed up: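 Read-out is ATP-based luminescence (ATPlite) after 5 days of culture at 37° C under 5% CO2. Compounds were given as 10-point dilutions starting at 10 μM to MV4-11 cells, seeded at 1,000 cells/well in Alpha-MEM plus 10% FBS.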

In assay [1] the test system is H3K4 dimethylation (H3K4me2) in T24 cells. Put plainly: Detection of in-cell H3K4 dimethylation (AlphaLisa). The class given is cell-based. The note with it: Homo sapiens, T-24, 120 h, five days, read-out: In vitro whole cell potency in T24 cells, H3K4Me2 (IC50). On the procedure: (iii) Detection of In-Cell H3K4 Dimethylation
T24 cells were seeded into a 96-well plate at 400 cells/well in 150 μl medium (McCoy 5A containing 10% FBS, 100 μg/ml Normocin, and 50 μg/ml Gentamycin, Invitrogen). A HP D300 digital dispenser was used to dose cells with DMSO or test compounds across a 10-point range of concentrations (high dose of 10 μM), and cultures were grown in a humidified 5% CO2 incubator at 37° C. After five days, plates were removed from incubator, media was aspirated, and the cells washed in PBS. Cell lysis, histone extraction, and detection of H3K4 dimethylation (H3K4me2) were performed using an AlphaLisa kit according to the manufacturer's instructions (Perkin Elmer). Signal was measured using an Envision plate reader.

Assay [2] deals with T1, WDR5 (Homo sapiens (Human), UniProt P61964). The assay is described as follows: Surface Plasmon Resonance (SPR) assay, KD and residence time. The assay is classed as binding. Particulars: surface plasmon resonance (SPR); read-out: WDR5 binding affinity (KD). (In general: SPR reads the build-up and loss of mass on a sensor chip optically.)
Assay [3] concerns the target T1, WDR5. The note with it: previous studies, J. Med. Chem. 2010, 53: 5179-5185; J. Am. Chem. Soc. 2013, 135: 669-682; read-out: Ki, binding affinity to WDR5; cited from earlier work.

Broadly, the IC50 is the concentration needed to halve the response being measured. As a reminder, the Kd is the constant that tells how readily two partners part at equilibrium. As usually defined, the Ki is the dissociation constant of the complex between target and ligand, obtained from inhibition or displacement.

For `CN1CCN(c2cc(F)c(-c3cnc(N4CCOCC4)nc3)cc2NC(=O)c2c[nH]c(=O)cc2C(F)(F)F)CC1` [Example 3, N-(4-fluoro-2-(4-methylpiperazin-1-yl)-5-(2-morpholinopyrimidin-5-yl)phenyl)-6-oxo-4-(trifluoromethyl)-1,6-dihydropyridine-3-carboxamide], the results for the IC50 (with MV4-11 cells; in assay [1]) were 749 nM and 882 nM, respectively. Taken in the same sequence, the figures for `C[C@@H]1CN(c2cc(F)c(-c3cnc(N4CCOCC4)nc3)cc2NC(=O)c2c[nH]c(=O)cc2C(F)(F)F)CCN1C` [Example 6, (R)—N-(2-(3,4-dimethylpiperazin-1-yl)-4-fluoro-5-(2-morpholinopyrimidin-5-yl)phenyl)-6-oxo-4-(trifluoromethyl)-1,6-dihydropyridine-3-carboxamide] were 828 nM and 1070 nM. For the molecule `C[C@H]1CN(c2cc(F)c(-c3cnc(N4CCOCC4)nc3)cc2NC(=O)c2c[nH]c(=O)cc2C(F)(F)F)CCN1C` [Example 7, (S)—N-(2-(3,4-dimethylpiperazin-1-yl)-4-fluoro-5-(2-morpholinopyrimidin-5-yl)phenyl)-6-oxo-4-(trifluoromethyl)-1,6-dihydropyridine-3-carboxamide], the half-inhibitory concentration (IC50) with MV4-11 cells was found to be 51 nM; in assay [1], 166 nM. Take `C[C@@H]1CN(c2cc(F)c(-c3cnc(N4CCOCC4)nc3)cc2NC(=O)c2c[nH]c(=O)cc2C(F)(F)F)C[C@H](C)N1C` [Example 8, N-(4-fluoro-5-(2-morpholinopyrimidin-5-yl)-2-((3R,5S)-3,4,5-trimethylpiperazin-1-yl)phenyl)-6-oxo-4-(trifluoromethyl)-1,6-dihydropyridine-3-carboxamide]: in assay [1], the concentration for half-maximal inhibition (IC50) came out at 144 nM. As for `C[C@@H]1CN(c2cc(F)c(-c3ccc(OCC4CC4)nc3)cc2NC(=O)c2c[nH]c(=O)cc2C(F)(F)F)C[C@H](C)N1C` [Example 39, N-[5-[6-(cyclopropylmethoxy)pyridin-3-yl]-4-fluoro-2-[(3S,5R)-3,4,5-trimethylpiperazin-1-yl]phenyl]-6-oxo-4-(trifluoromethyl)-1H-pyridine-3-carboxamide], the figures for the 50% inhibitory concentration (IC50) (in the assay on MV4-11 cells; in assay [1]) were 213 nM and 626 nM, respectively. Consider `C[C@@H]1CN(c2cc(F)c(C3=CCCN(c4ncc(CN(C)C)cn4)C3)cc2NC(=O)c2c[nH]c(=O)cc2C(F)(F)F)C[C@H](C)N1C` [Example 414, N-[5-[1-[5-[(dimethylamino)methyl]pyrimidin-2-yl]-3,6-dihydro-2H-pyridin-5-yl]-4-fluoro-2-[(3R,5S)-3,4,5-trimethylpiperazin-1-yl]phenyl]-6-oxo-4-(trifluoromethyl)-1H-pyridine-3-carboxamide], for which, in the assay on MV4-11 cells, the IC50 worked out at 8 nM. Besides, on WDR5 [2], the Kd was 0.658 nM.

Regarding `C[C@@H]1CN(c2cc(F)c(C3=CCCN(c4ncc(CN5CCOCC5)cn4)C3)cc2NC(=O)c2c[nH]c(=O)cc2C(F)(F)F)C[C@H](C)N1C` [Example 415, N-[4-fluoro-5-[1-[5-(morpholin-4-ylmethyl)pyrimidin-2-yl]-3,6-dihydro-2H-pyridin-5-yl]-2-[(3R,5S)-3,4,5-trimethylpiperazin-1-yl]phenyl]-6-oxo-4-(trifluoromethyl)-1H-pyridine-3-carboxamide], in the assay with MV4-11 cells, the IC50 is 17 nM. Besides, the Kd at WDR5 [2] came out at 1.1 nM. With `C[C@@H]1CN(c2ncc(-c3cc(NC(=O)c4ccc(F)cc4C(F)(F)F)c(N4CCN(C)[C@@H](C)C4)cc3F)cn2)CCO1` [Example 456, 4-fluoro-N-[4-fluoro-2-[(3S)-3,4-dimethylpiperazin-1-yl]-5-[2-[(2R)-2-methylmorpholin-4-yl]pyrimidin-5-yl]phenyl]-2-(trifluoromethyl)benzamide], the IC50 with MV4-11 cells was 89 nM. The Kd at WDR5 [2] was found to be 1.08 nM. As for `C[C@@H]1CN(c2cc(F)c(C3=CCN(C(=O)OC4(C)CCC4)CC3)cc2NC(=O)c2c[nH]c(=O)cc2C(F)(F)F)C[C@H](C)N1C` [Example 470, (1-methylcyclobutyl) 4-[2-fluoro-5-[[6-oxo-4-(trifluoromethyl)-1H-pyridine-3-carbonyl]amino]-4-[(3R,5S)-3,4,5-trimethylpiperazin-1-yl]phenyl]-3,6-dihydro-2H-pyridine-1-carboxylate], the IC50 with MV4-11 cells is 56 nM. Further, the Kd on WDR5 [2] is 4.27 nM.

For the molecule `C[C@@H]1CN(c2cc(F)c(C3=CCCN(C(=O)OC4(C)CCC4)C3)cc2NC(=O)c2c[nH]c(=O)cc2C(F)(F)F)C[C@H](C)N1C` [Example 471, (1-methylcyclobutyl) 5-[2-fluoro-5-[[6-oxo-4-(trifluoromethyl)-1H-pyridine-3-carbonyl]amino]-4-[(3R,5S)-3,4,5-trimethylpiperazin-1-yl]phenyl]-3,6-dihydro-2H-pyridine-1-carboxylate], the concentration for half-maximal inhibition (IC50) in the assay with MV4-11 cells is 78 nM. For the same molecule, on WDR5 [2], the dissociation constant Kd turned out to be 0.494 nM. The like results for `C[C@@H]1CN(c2cc(F)c(C3=CCN(C(=O)OC4(C)CCC4)C3)cc2NC(=O)c2c[nH]c(=O)cc2C(F)(F)F)C[C@H](C)N1C` [Example 472, (1-methylcyclobutyl) 3-[2-fluoro-5-[[6-oxo-4-(trifluoromethyl)-1H-pyridine-3-carbonyl]amino]-4-[(3R,5S)-3,4,5-trimethylpiperazin-1-yl]phenyl]-2,5-dihydropyrrole-1-carboxylate] were, in that order, 104 nM and 0.407 nM. As for `C[C@@H]1CN(c2cc(F)c(-c3nc(C(=O)N(C)CC4CC4)cs3)cc2NC(=O)c2c[nH]c(=O)cc2C(F)(F)F)C[C@H](C)N1C` [Example 483, N-(cyclopropylmethyl)-2-[2-fluoro-5-[[6-oxo-4-(trifluoromethyl)-1H-pyridine-3-carbonyl]amino]-4-[(3R,5S)-3,4,5-trimethylpiperazin-1-yl]phenyl]-N-methyl-1,3-thiazole-4-carboxamide], the IC50 in the assay on MV4-11 cells stood at 24 nM. The equilibrium dissociation constant (Kd) at WDR5 [2] stood at 3.97 nM. Turning to `C[C@@H]1CN(c2ccc(-c3cc(NC(=O)c4c[nH]c(=O)cc4C(F)F)c(N4C[C@@H](C)N(C)[C@@H](C)C4)cc3F)cn2)CCO1` [Example 508, 4-(difluoromethyl)-N-[4-fluoro-5-[6-[(2R)-2-methylmorpholin-4-yl]pyridin-3-yl]-2-[(3R,5S)-3,4,5-trimethylpiperazin-1-yl]phenyl]-6-oxo-1H-pyridine-3-carboxamide], in the assay with MV4-11 cells, the IC50 turned out to be 73 nM. Moreover, the Kd on WDR5 [2] was found to be 2.66 nM. With `C[C@@H]1CN(c2cc(F)c(-c3csc(C(=O)N(C)CC4CC4)n3)cc2NC(=O)c2c[nH]c(=O)cc2C(F)(F)F)C[C@H](C)N1C` [Example 532, N-(cyclopropylmethyl)-4-[2-fluoro-5-[[6-oxo-4-(trifluoromethyl)-1H-pyridine-3-carbonyl]amino]-4-[(3R,5S)-3,4,5-trimethylpiperazin-1-yl]phenyl]-N-methyl-1,3-thiazole-2-carboxamide], the IC50 in the assay with MV4-11 cells stood at 22 nM. In addition, at WDR5 [2], the dissociation constant (Kd) amounted to 0.694 nM. Taken in the same sequence, the figures for `CC(C)OC(=O)N1CC=C(c2cc(NC(=O)c3c[nH]c(=O)cc3C(F)(F)F)c(N3C[C@@H](C)N(C)[C@@H](C)C3)cc2F)C1` [Example 600, Propan-2-yl 3-[2-fluoro-5-[[6-oxo-4-(trifluoromethyl)-1H-pyridine-3-carbonyl]amino]-4-[(3R,5S)-3,4,5-trimethylpiperazin-1-yl]phenyl]-2,5-dihydropyrrole-1-carboxylate] were 52 nM and 0.779 nM.

Ac-A-R-A-NH2: the inhibitory constant (Ki) at WDR5 [3] was 120000 nM.

The values above are taken from patent publication US11319299B2, “Substituted carboxamides as inhibitors of WDR5 protein-protein binding” (PROPELLON THERAPEUTICS INC., priority 2016, dated 2022).
